From patent EP1007530B1, “6-O-SUBSTITUTED ERYTHROMYCIN COMPOUNDS AND METHOD FOR MAKING SAME” (ABBOTT LABORATORIES, priority 1996, dated 1997)

What was measured:
Test in all cases: In vitro assay of antibacterial activity (agar dilution MIC)
Format in all cases: cell-based
[1] = system: Escherichia coli H560; settings: BHI agar, 35-37 °C, 20 to 24 hours, unit assumed
Description: (§1) Representative compounds of the present invention were assayed in vitro for antibacterial activity as follows: Twelve petri dishes containing successive aqueous dilutions of the test compound mixed with 10 mL of sterilized Brain Heart Infusion (BHI) agar (Difco 0418-01-5) were prepared. Each plate was inoculated with 1:100 (or 1:10 for slow-growing strains, such as Micrococcus and Streptococcus) dilutions of up to 32 different microorganisms, using a Steers replicator block. The inoculated plates were incubated at 35-37 °C for 20 to 24 hours, In addition, a control plate, using BHI agar containing no test compound, was prepared and incubated at the beginning and end of each test.
(§2) An additional plate containing a compound having known susceptibility patterns for the organisms being tested and belonging to the same antibiotic class as the test compound was also prepared and incubated as a further control, as well as to provide test-to-test comparability. Erythromycin A was used for this purpose.
(§3) After incubation, each plate was visually inspected. The minimum inhibitory concentration (MIC) was defined as the lowest concentration of drug yielding no growth, a slight haze, or sparsely isolated colonies on the inoculum spot as compared to the growth control. […]

[2] = system: Staphylococcus aureus NCTC10649M; settings: BHI agar, 35-37 °C, 20 to 24 hours, unit assumed
Description: as §1, §2, §3

[3] = system: Pseudomonas aeruginosa DPHD-2862; settings: BHI agar, 35-37 °C, 20 to 24 hours, unit assumed
Description: as §1, §2, §3

[4] = system: Staphylococcus aureus A-5278; settings: BHI agar, 35-37 °C, 20 to 24 hours, unit assumed
Description: as §1, §2, §3

[5] = system: Escherichia coli DC-2; settings: BHI agar, 35-37 °C, 20 to 24 hours, unit assumed
Description: as §1, §2, §3

[6] = system: Streptococcus pyogenes EES61; settings: BHI agar, 35-37 °C, 20 to 24 hours, unit assumed
Description: as §1, §2, §3

[7] = system: Staphylococcus aureus ATCC 6538P; settings: BHI agar, 35-37 °C, 20 to 24 hours, unit assumed
Description: as §1, §2, §3

[8] = system: Enterobacter aerogenes ATCC 13048; settings: BHI agar, 35-37 °C, 20 to 24 hours, unit assumed
Description: as §1, §2, §3

[9] = system: Pseudomonas aeruginosa DPHD-5263; settings: BHI agar, 35-37 °C, 20 to 24 hours, in µg/mL (unit assumed)
Description: as §1, §2, §3

[10] = system: Pseudomonas aeruginosa BMH10; settings: BHI agar, 35-37 °C, 20 to 24 hours, in µg/mL (unit assumed)
Description: as §1, §2, §3

[11] = system: Candida albicans CCH 442; settings: BHI agar, 35-37 °C, 20 to 24 hours, unit assumed
Description: as §1, §2, §3

[12] = system: Pseudomonas capacia 2961; settings: BHI agar, 35-37 °C, 20 to 24 hours, in µg/mL (unit assumed)
Description: as §1, §2, §3

[13] = system: Mycobacterium smegmatis ATCC 114; settings: BHI agar, 35-37 °C, 20 to 24 hours, unit assumed
Description: as §1, §2, §3

[14] = system: Escherichia coli JUHL; settings: BHI agar, 35-37 °C, 20 to 24 hours, in µg/mL (unit assumed)
Description: as §1, §2, §3

[15] = system: Staphylococcus aureus CMX 642A; settings: BHI agar, 35-37 °C, 20 to 24 hours, unit assumed
Description: as §1, §2, §3

[16] = system: Streptococcus pyogenes 930; settings: BHI agar, 35-37 °C, 20 to 24 hours, unit assumed
Description: as §1, §2, §3

[17] = system: Pseudomonas aeruginosa K799/61; settings: BHI agar, 35-37 °C, 20 to 24 hours, unit assumed
Description: as §1, §2, §3

[18] = system: Enterococcus faecium ATCC 8043; settings: BHI agar, 35-37 °C, 20 to 24 hours, unit assumed
Description: as §1, §2, §3

[19] = system: Staphylococcus aureus 1775; settings: BHI agar, 35-37 °C, 20 to 24 hours, unit assumed
Description: as §1, §2, §3

[20] = system: Staphylococcus aureus CMX 553; settings: BHI agar, 35-37 °C, 20 to 24 hours, unit assumed
Description: as §1, §2, §3

[21] = system: Pseudomonas aeruginosa 5007; settings: BHI agar, 35-37 °C, 20 to 24 hours, unit assumed
Description: as §1, §2, §3

[22] = system: Streptococcus agalactiae CMX 508; settings: BHI agar, 35-37 °C, 20 to 24 hours, unit assumed
Description: as §1, §2, §3

[23] = system: Pseudomonas aeruginosa K799/WT; settings: BHI agar, 35-37 °C, 20 to 24 hours, unit assumed
Description: as §1, §2, §3

[24] = system: Escherichia coli KNK 437; settings: BHI agar, 35-37 °C, 20 to 24 hours, unit assumed
Description: as §1, §2, §3

[25] = system: Escherichia coli SS; settings: BHI agar, 35-37 °C, 20 to 24 hours, unit assumed
Description: as §1, §2, §3

[26] = system: Micrococcus luteus ATCC 4698; settings: BHI agar, 35-37 °C, 20 to 24 hours, unit assumed
Description: as §1, §2, §3

[27] = system: Streptococcus bovis A-5169; settings: BHI agar, 35-37 °C, 20 to 24 hours, unit assumed
Description: as §1, §2, §3

[28] = system: Micrococcus luteus ATCC 9341; settings: BHI agar, 35-37 °C, 20 to 24 hours, unit assumed
Description: as §1, §2, §3

[29] = system: Staphylococcus epidermidis 3519; settings: BHI agar, 35-37 °C, 20 to 24 hours, unit assumed
Description: as §1, §2, §3

[30] = system: Streptococcus pyogenes PIU 2548; settings: BHI agar, 35-37 °C, 20 to 24 hours, unit assumed
Description: as §1, §2, §3

[31] = system: Providencia struartii CMX 640; settings: BHI agar, 35-37 °C, 20 to 24 hours, unit assumed
Description: as §1, §2, §3

[32] = system: Actinetobacter calcoaceticus CMX 669; settings: BHI agar, 35-37 °C, 20 to 24 hours, unit assumed
Description: as §1
An additional plate containing a compound having known susceptibility patterns for the organisms being tested and belonging to the same antibiotic class as the test compound was also prepared and incubated as a further control, as well as to provide test-to-test comparability.
as §3

[33] = system: Klebsiella pneumoniae ATCC 8045; settings: BHI agar, 35-37 °C, 20 to 24 hours, unit assumed
Description: as §1, §2, §3

**Q.** What does the source list for `CC[C@H]1OC(=O)[C@H](C)[C@@H](O[C@H]2C[C@@](C)(OC)[C@@H](O)[C@H](C)O2)[C@H](C)[C@@H](O[C@@H]2O[C@H](C)C[C@H](N(C)C)[C@H]2O)[C@](C)(OCC=NO)C[C@@H](C)C(=O)[C@H](C)[C@@H](O)[C@]1(C)O` [Example 12, Compound of Formula (X): X is =O, R is -CH2-CH=N-OH]?
**A.** MIC [1]: 25 µg/mL; MIC [2]: 0.39 µg/mL; MIC [3]: > 100 µg/mL; MIC [4]: > 100 µg/mL; MIC [5]: > 100 µg/mL; MIC [6]: 0.05 µg/mL; MIC [7]: 0.39 µg/mL; MIC [8]: > 100 µg/mL; MIC [9]: > 100; MIC [10]: > 100; MIC [11]: > 100 µg/mL; MIC [12]: > 100; MIC [13]: 0.78 µg/mL; MIC [14]: 50; MIC [15]: 0.39 µg/mL; MIC [16]: > 100 µg/mL; MIC [17]: 1.56 µg/mL; MIC [18]: 0.1 µg/mL; MIC [19]: > 100 µg/mL; MIC [20]: 0.39 µg/mL; MIC [21]: > 100 µg/mL; MIC [22]: 0.05 µg/mL; MIC [23]: > 100 µg/mL; MIC [24]: 100 µg/mL; MIC [25]: 0.78 µg/mL; MIC [26]: 0.78 µg/mL; MIC [27]: 0.05 µg/mL; MIC [28]: 0.05 µg/mL; MIC [29]: 0.39 µg/mL; MIC [30]: 12.5 µg/mL; MIC [31]: > 100 µg/mL; MIC [32]: 12.5 µg/mL

**Q.** Which results are given for “Compound of Formula (X): X is =N-OH, R is allyl [Example 1C]”?
**A.** MIC [33]: > 100 µg/mL; MIC [1]: 100 µg/mL; MIC [2]: 0.78 µg/mL; MIC [3]: > 100 µg/mL; MIC [4]: > 100 µg/mL; MIC [5]: > 100 µg/mL; MIC [7]: 0.78 µg/mL; MIC [8]: > 100 µg/mL; MIC [9]: > 100; MIC [10]: > 100; MIC [11]: > 100 µg/mL; MIC [12]: > 100; MIC [13]: 0.2 µg/mL; MIC [14]: 100; MIC [15]: 1.56 µg/mL; MIC [16]: > 100 µg/mL; MIC [17]: 6.2 µg/mL; MIC [18]: 0.2 µg/mL; MIC [19]: > 100 µg/mL; MIC [20]: 0.78 µg/mL; MIC [21]: > 100 µg/mL; MIC [22]: 0.01 µg/mL; MIC [23]: > 100 µg/mL; MIC [24]: > 100 µg/mL; MIC [25]: 0.78 µg/mL; MIC [26]: 1.56 µg/mL; MIC [27]: 0.01 µg/mL; MIC [28]: 0.1 µg/mL; MIC [29]: 0.39 µg/mL; MIC [30]: 3.1 µg/mL; MIC [31]: > 100 µg/mL; MIC [32]: 50 µg/mL

**Q.** For “Compound of Formula (XII): X is-=N-O-(1-isopropoxycyclohexyl), R is allyl, R^p is trimethylsilyl [Example 1B]”, which MIC [33] is on record?
**A.** > 100 µg/mL

**Q.** What about the MIC [1] of the same molecule?
**A.** 100 µg/mL

**Q.** What about the MIC [2] of the same molecule?
**A.** 3.1 µg/mL

**Q.** And the MIC [3]?
**A.** > 100 µg/mL

**Q.** What about the MIC [4] of the same molecule?
**A.** > 100 µg/mL

**Q.** And the MIC [5]?
**A.** > 100 µg/mL

**Q.** And the MIC [7]?
**A.** 0.78 µg/mL

**Q.** What about the MIC [8] of the same molecule?
**A.** > 100 µg/mL

**Q.** And the MIC [9]?
**A.** > 100

**Q.** What about the MIC [10] of the same molecule?
**A.** > 100

**Q.** What about the MIC [11] of the same molecule?
**A.** > 100 µg/mL

**Q.** What about the MIC [12] of the same molecule?
**A.** > 100

**Q.** And the MIC [14]?
**A.** > 100

**Q.** And the MIC [15]?
**A.** 1.56 µg/mL

**Q.** And the MIC [16]?
**A.** > 100 µg/mL

**Q.** What about the MIC [17] of the same molecule?
**A.** 6.2 µg/mL

**Q.** What about the MIC [18] of the same molecule?
**A.** 0.2 µg/mL

**Q.** What about the MIC [19] of the same molecule?
**A.** > 100 µg/mL

**Q.** And the MIC [20]?
**A.** 1.56 µg/mL

**Q.** And the MIC [21]?
**A.** > 100 µg/mL

**Q.** What about the MIC [22] of the same molecule?
**A.** 0.1 µg/mL

**Q.** And the MIC [23]?
**A.** > 100 µg/mL

**Q.** And the MIC [24]?
**A.** > 100 µg/mL

**Q.** What about the MIC [25] of the same molecule?
**A.** 3.1 µg/mL

**Q.** What about the MIC [26] of the same molecule?
**A.** 3.1 µg/mL

**Q.** What about the MIC [27] of the same molecule?
**A.** 0.02 µg/mL

**Q.** What about the MIC [28] of the same molecule?
**A.** 0.2 µg/mL

**Q.** And the MIC [29]?
**A.** 0.39 µg/mL

**Q.** And the MIC [30]?
**A.** 6.2 µg/mL

**Q.** And the MIC [31]?
**A.** > 100 µg/mL

**Q.** And the MIC [32]?
**A.** 50 µg/mL
